Data reported in US9648880B2, “Antifungal agents and uses thereof” (University of Massachusetts, priority 2012, dated 2017).
“Also recorded” adds a separate entry of the source.

Tests used:
[1] = system: C. elegans infected with C. albicans; assay: C. elegans pathogenesis assay; type: in vivo, Caenorhabditis elegans; details: 12.5 μM
Method: We therefore tested whether compound #4 can alter fungal infections in two in vivo settings. First, we performed pathogenesis assays in which nematodes (Caenorhabditis elegans) are infected with C. albicans, resulting in killing of the nematode host (Jain, 2009; Okoli, 2009). We used this assay to test whether compound #4 might have a protective effect, exposing C. elegans to Candida albicans and either DMSO vehicle, the commonly used antifungal drug fluconazole at 12.5 μM, or compound #4 at the same concentration. […] Therefore, consistent with its in vitro activities, compound #4 functions as an antifungal agent in this model infection system.
Three worms in the L3/L4 stage were transferred to each of two NGM agar plates containing E. coli OP50 and grown at 20° C. for four days. On the day of the experiment, worms were washed off the plates with M9 buffer and centrifuged at 900×g for 2 min. The supernatant was removed, and the worms were then resuspended in a bleach solution (1:4 dilution of commercial bleach (5.25%) diluted in 0.25 M sodium hydroxide). The worm suspension was mixed gently by inversion for 3 min, and centrifuged for 2 min at 2,000×g. The pellet containing the eggs was washed with M9 buffer and centrifuged at 2,000×g for 2 min and then resuspended in 500 μl M9 buffer. […]

[2] = system: fluconazole-resistant C. albicans strains; assay: fluconazole synergy assay; type: cell-based, Candida albicans; details: 24 hrs, 37° C.; alamarBlue without wash
Method: FIGS. 10A-10B. […] Candida strains were identified from AIDS patients (3919, an initial progenitor isolate, and the subsequently isolated 4617 and 4639 strains). These were coincubated in the presence of either compounds #4, #Q1, fluconazole alone or a combination of fluconazole with either #4 or #Q1 for 24 hrs in polystyrene plates at 37° C. Viability was assessed using alamarBlue reagent as described (Youngsaye, supra).
Finally, we tested whether compound #4 would inhibit growth of fluconazole-resistant C. albicans strains in the presence of low levels of fluconazole, because that is the activity described for compound Q1 (Youngsaye supra). To measure cell viability rather than adhesion, we performed alamarBlue-based viability measurements without wash steps, using fluconazole-resistant C. albicans strains obtained from an AIDS patient who had been treated with fluconazole for oral candidaisis (Bachmann, 2002).
Assays to test for synergies between compound #4 and fluconazole were performed as described (Youngsaye, 2011, supra), except we used a 96-well rather than a 384-well format. […] At the end of 24 hours of incubation, viability was evaluated without washing steps, using alamarBlue as previously described (Youngsaye, 2011, supra).

SC5314 = assay: growth rate in liquid culture; type: cell-based, Candida albicans; details: 50 μM; liquid YPD, 30° C.
Method: FIGS. 8A-8B. Characterization of compound #4. FIG. 8A is a graphs showing the IC50 for compound #4 measured using GFP adhesion assay. Assay performed as in FIG. 1D with the indicated concentrations of compound #4. Mean and standard deviations from 4 replicate well measurements are shown. FIG. 8B is a graph showing the effect of compound #4 on growth rate of SC5314 in liquid culture. SC5314 was grown in liquid YPD in a 30° C. shaker in the presence of 1% DMSO or compounds #4, 5, 6, 7 or 8 at 50 μM and the OD600 of the culture was measured at the indicated times. Cultures were also observed in the microscope, and we confirmed that the cells retained the budding yeast morphology during the course of this experiment.
We performed several additional experiments to characterize the ability of compound #4 to inhibit Candida adhesion to polystyrene. […] Second, we tested whether compound #4 affects C. albicans cell growth rate. […] Therefore, compound #4 slows C. albicans growth but is minimally toxic to human epithelial cells (FIG. 2C), properties that are desirable for candidate antifungal compounds.
Overnight cultures of […] were diluted to 0.1 OD/ml in fresh YPD and grown in a 30° C. shaker at 200 RPM in the presence of […] of compounds or 1% DMSO. OD 600 nm was measured during the time course to evaluate growth rate.

[3] = system: C. albicans SC5314 on excised murine vaginal mucosal tissue; assay: ex vivo mouse vaginal mucosal infection (VVC); details: 24 h
Method: FIG. 6A-6B. Effects on metazoan hosts. FIG. 6A is a graph showing the lifespan of C. elegans exposed to C. albicans treated with 12.5 μM compound #4 (lower graph line) or 12.5 μM fluconazole (upper graph line) compared to untreated (middle graph line). […] FIG. 6B is a series of photographs showing microscopic analysis of ex vivo vaginal mucosal biofilm formation. Mice were administered estrogen and vaginae were harvested. Tissues were either uninfected, or pretreated with DMSO or 50 μM compound #4, and then inoculated with C. albicans SC5314 (10^6 blastoconidia) and incubated for 24 h. Tissues were bisected and processed for scanning electron microscopy (SEM), or confocal microscopy (CM) after staining with Calcofluor to detect yeast (blue) and Concavalin A to visualize extracellular matrix (red). SEM images were taken at 1000× magnification, and CM images at 600× magnification.
In this assay, excised murine vaginal mucosal tissue is tested as a substrate for infection by Candida cells, providing a rapid and simple method for optimizing treatment conditions prior to in vivo infection assays. The other readout in the assay is a measure of the number of viable fungal cells, expressed as colony forming units (CFU).
These ex vivo infections were performed as described (Harriott, 2010).

Structure (SMILES): Cc1ccc(C(=O)N2CCN(c3ccc([N+](=O)[O-])cc3)CC2)cc1Cl [Compound 4]
- lifespan of infected worms [1]: significantly increased survival; also recorded: increased the lifespan of the infected worms
- viability/growth of fluconazole-resistant strains, alone or with low fluconazole [2]: did not affect fluconazole-resistant C. albicans viability, whether alone or in the presence of fluconazole
- C. albicans cell growth rate (doubling time) (SC5314): reduced the doubling time
- CFU recovered ([3]; 50 μM pretreatment): did not observe significant differences
- extracellular matrix (Concavalin A staining) ([3]; 50 μM): still formed a carbohydrate-rich extracellular matrix
- hyphae formation or ECM production ([3]; 50 μM): only partially inhibits hyphae formation or ECM production
